Data published in patent publication US7582662B2, “Body weight gain inhibitor” (Takeda Pharmaceutical Company Limited, priority 2002, dated 2009).
Structures can show the parent of a compound that is named as a salt.

Columns and labels:
[1] = patients with type II diabetes; Diabetes, 47, suppl. 1, A18, No. 69, 1998; cited from earlier work
[2] = Body weight gain induced by PPARγ agonist-like substance (pioglitazone) in obesity rats; type: in vivo, male Wistar fatty rats; details: Wistar fatty rats, 7 days
Procedure: Effect of Compound a on Body Weight Gain Induced by PPARγ Agonist-Like Substance (Pioglitazone) As the obesity rats, male Wistar fatty rats (16 week old) were used. The body weights were measured and the rats were grouped, after which a suspension of a drug in 0.5% methylcellulose solution was repeatedly and forcibly administered orally once a day for 7 consecutive days. After 24 hr from the final administration, the body weight was measured and the body weight gain was calculated. […] For the analysis of significance, Student's t-test was used. • 2) Results

[3] = Body weight gain of obese mouse (compound A-mixed feed, 4 days); type: in vivo, male KKA^y mice; details: KKA^y mice, 10 week old, 0.005% compound A-mixed feed (about 6.5 mg/kg/day), mean±standard error, control 1.2±0.2 g, p<0.05
Procedure: Effect of 2-ethoxy-1-[[2′-(2,5-dihydro-5-oxo-1,2,4-oxadiazole-3-yl)biphenyl-4-yl]methyl]benzimidazole-7-carboxylic acid (Compound A) on Body Weight Gain of Obese Mouse
As the obese mouse, male KKA^y mice (10 week old) were used. The mice were grouped by measuring the body weight, and feeding of a CE-2 powdered feed (control)(n=7) and a 0.005% compound A-mixed feed (n=7) was started. At 4 days from feeding, the body weight was measured and the amount of the body weight gain was calculated. As the normal control, C57BL mice were used, and after feeding a CE-2 powdered feed for 4 days, whether the male KKA^y mice of the same age became obese was also examined.
The results are shown in mean±standard error. For the analysis of significance, Student's t-test was used. • 2) Results

## Cc1c(C)c2c(c(C)c1O)CCC(C)(COc1ccc(CC3SC(=O)NC3=O)cc1)O2 (stereo not shown) [troglitazone]
[1]
  effect on body weight: body weight gaining action

## CCOc1nc2cccc(C(=O)O)c2n1Cc1ccc(-c2ccccc2-c2nc(=O)o[nH]2)cc1 [compound A, 2-ethoxy-1-[[2′-(2,5-dihydro-5-oxo-1,2,4-oxadiazol-3-yl)biphenyl-4-yl]methyl]benzimidazole-7-carboxylic acid]
[2]; compound A 1 mg/kg/day p.o. together with PPARγ agonist-like substance (pioglitazone hydrochloride) 0.5 mg/kg/day p.o., p<0.05 vs single administration group
  amount of body weight gain: 19.3 ± 2.5 g
[3]
  body weight gain during the test period: 0.1 ± 0.4 g

## CCc1ccc(CCOc2ccc(CC3SC(=O)NC3=O)cc2)nc1 (stereo not shown) [pioglitazone hydrochloride]
[2]; 0.5 mg/kg/day p.o. alone, mean±standard error, control 24.4±2.4 g, p<0.05
  amount of body weight gain: 30.8 ± 1.8 g
